# “Also recorded” adds a separate entry of the source.
# Key:
# [1] = Toxicity / maximally tolerated dose in mice; assay type: in vivo; conditions: administered orally or via IP injection to untreated OVA-challenged mice for 22 days
# Procedure: (§1) 3-CP was also administered using 3 daily intraperitoneal (IP) injections (200 μl, 0.15 M, ˜300 mg/kg) 0.5 hour prior to the challenge with OVA aerosol, or by nasal instillation (50 μl, 0.3 M, ˜150 mg/kg) twice a day 0.5 hour prior to the challenge with OVA aerosol and 6 hours later without exceeding its maximally tolerated dose, which has been previously established to be 300-500 mg/kg. Both 3-CP and TPL were non-toxic when administered orally or via IP injection to untreated OVA-challenged mice for 22 days.
# [2] = system: ovalbumin-induced murine model of asthma; assay: Inflammatory cell counts in BAL fluid in OVA asthma model; assay type: in vivo, BALB/c mice
# Procedure: All experimental procedures were carried out in accordance with the NIH Guidelines for the Care and Use of Laboratory Animals. Specific pathogen-free (SPF) male BALB/c mice (6-7 weeks of age, 18-22 grams), routinely screened serologically for relevant respiratory pathogens, were maintained in an animal housing facility for 1 week before use and given access to food and water ad libitum. Animals were randomly assigned to the indicated experimental groups, and sensitized with two intraperitoneal (IP) injections (20 μg ovalbumin (OVA) emulsified in 2 mg aluminum hydroxide (an adjuvant) in 200 μl phosphate buffer saline (PBS), pH 7.4), on days 1 and 10.
# After another week, the animals were challenged by exposure to ovalbumin (OVA) aerosol (1%, w/v, in PBS) for 30 minutes each day on days 17, 18 and 19, in order to elicit an inflammatory reaction in the lungs characterized by airway hyper-responsiveness (AHR), an influx of inflammatory cells (particularly eosinophils), and increased pulmonary levels of various cytokines and transforming growth factors, protein nitration and lipid peroxidation.
# The features of allergic inflammation typically reached their peak a day or two after the final exposure. Mice were then subjected to one of the following treatments: (i) sham-sensitization plus challenge with PBS; (ii) positive control-sensitization plus challenge with OVA; (iii) sensitization plus challenge with OVA and various indicated treatments (e.g., with nitroxide or dexamethasone), including different modes (oral, IP, intranasal, inhalation), time windows (sensitization stage, challenge stage, both stages and after the last challenge), and doses of nitroxide administration.
# Bronchoalveolar lavage (BAL) fluid (also referred to herein as “BALf”) and bronchial submucosal inflammation are characteristic features of asthma. Mice were euthanized with an overdose of 50 mg/kg pentobarbital and ice-cold phosphate buffer saline (PBS) (0.6 ml) was instilled into the lungs. BAL fluid was obtained by three aspirations via tracheal cannulation, centrifuged, and the supernatant collected and stored at −70° C. Cell pellets were re-suspended in PBS and 100 μl aliquots placed onto slides and centrifuged (200 g, 4° C., 10 minutes) in a cytospin machine. Induction of oxidative stress was evaluated using a 2′,7′-dichlorofluorescein fluorescence assay, and total IgE, IgG2a, panel of cytokines, transforming growth factors, collagen, protein nitration and lipid peroxidation were measured using commercial kits according to the manufacturer's recommendations. A Sircol™ collagen assay kit was obtained from Biocolor Life Sciences Assays, a protein nitration assay kit was obtained from Abcam, and other assay kits were obtained from PeproTech Asia.
# Control and experimental groups contained 10 mice each. The effects of the nitroxides were investigated by feeding the mice ad libitum a diet of nitroxide-containing chow (1 weight percent) during both ovalbumin (OVA)-induced sensitization and challenging periods (days −2-19), during the sensitization period (days −2-11) or challenge period (days 13-19). Nitroxide-containing chow were prepared by dissolving 500 grams chow in a minimum volume of water containing 5 grams nitroxide and 5 grams commercial chicken soup powder, preparing the chow and drying it at 37° C. (animals were reluctant to eat nitroxide-containing chow until chicken soup powder was added).
# as §1, with “days. […]” for “days.”
# mucin production = assay: Mucin production by PAS staining of lung tissue, OVA asthma model; assay type: in vivo, mice
# Procedure: Following aspiration of BAL as described hereinabove, a thoracotomy was performed, and the right main bronchus was tied. The left lung was fixed by means of intrabronchial infusion with 1 ml of 4% formaldehyde, and then immersed in fixative (10% (v/v) neutral buffered formalin) for 24 hours at 4° C. Transverse sections of the left lung were embedded in paraffin, and […] sections were stained with hematoxylin and eosin (H&E) by Hadassah Hospital Pathology Service (Jerusalem, Israel). In addition, periodic acid-Schiff (PAS) staining was performed on lung tissue, and the degree of mucin production was measured from PAS staining.
# In order to evaluate the effect of 3-CP on lung pathology, animals in an ovalbumin-induced asthma model were treated with 3-CP, and killed by abdominal aortic transaction and exsanguination, according to procedures described hereinabove. Lung tissue was examined by hematoxylin and eosin (H&E) staining, the degree of mucin production was determined from periodic-acid-Schiff (PAS) staining.
# [3] = oral, 1 weight percent in chow, FIG. 4
smiles,measurement,setting,value
"CC1(C)CC(C(N)=O)C(C)(C)N1[O] (stereo not drawn) [3-CP, 3-Carbamoyl-2,2,5,5-tetramethyl-pyrrolidin-1-oxyl]",toxicity,[1],non-toxic
same,"levels of inflammatory cells, oral 3-CP in both periods compared with other regimens","[2]; oral 1 weight percent in chow during sensitization and challenge periods, FIG. 5","more effective than IP injection or intranasal instillation of 3-CP, oral administration of 3-CP during the sensitization period or challenge period alone, or treatment with dexamethasone; also recorded: more effective than treatment with dexamethasone"
same,"BAL inflammatory cell/eosinophil count attenuation, 3-CP compared with TPL",[2]; [3],considerably more effective than TPL
same,effect on OVA-induced increase in total inflammatory cell and eosinophil counts in BAL fluid,[2]; [3],attenuated the increase in total inflammatory cell counts and eosinophil counts
same,"effect on mucin levels, PAS scoring","mucin production; 3-CP via all tested modes of delivery, FIGS. 10 and 11",reduced the mucin levels
same,"reducing mucin levels, 3-CP compared with dexamethasone",mucin production; FIG. 10,at least as effective as dexamethasone

# Source: US10441568B2, “Nitroxide radicals for the treatment of diseases of the respiratory tract” (priority 2015, dated 2019)
